Experimental data as given in the NIST ThermoML archive (doi:10.1021/je400055v).

Experiment: xn = mol fraction of the nth substance listed
Details: Liquid, Vibrating tube method

CCCCCCCCCCC [undecane] + CCCCCCC
Details | mass density [kg/m3]
313.15 K, 23000 kPa, x2 = 0.05 | 740.6
313.15 K, 23000 kPa, x2 = 0.7482 | 706.2
313.15 K, 24000 kPa, x2 = 0.05 | 741.3
313.15 K, 24000 kPa, x2 = 0.7482 | 707
313.15 K, 25000 kPa, x2 = 0.05 | 741.9
313.15 K, 25000 kPa, x2 = 0.7482 | 707.7
313.16 K, 1000 kPa, x2 = 0.2346 | 716.5
313.16 K, 2001 kPa, x2 = 0.2346 | 717.4
313.16 K, 3000 kPa, x2 = 0.2346 | 718.3
313.16 K, 4001 kPa, x2 = 0.2346 | 719.2
313.16 K, 5000 kPa, x2 = 0.2346 | 720
313.16 K, 6000 kPa, x2 = 0.2346 | 720.8
313.16 K, 7000 kPa, x2 = 0.2346 | 721.7
313.16 K, 8000 kPa, x2 = 0.2346 | 722.5
313.16 K, 9000 kPa, x2 = 0.2346 | 723.3
313.16 K, 10000 kPa, x2 = 0.2346 | 724.1
313.16 K, 11001 kPa, x2 = 0.2346 | 724.8
313.16 K, 12000 kPa, x2 = 0.2346 | 725.6
313.16 K, 13000 kPa, x2 = 0.2346 | 726.4
313.16 K, 14000 kPa, x2 = 0.2346 | 727.1
313.16 K, 15000 kPa, x2 = 0.2346 | 727.8
313.16 K, 16000 kPa, x2 = 0.2346 | 728.6
313.16 K, 17000 kPa, x2 = 0.2346 | 729.3
313.16 K, 18000 kPa, x2 = 0.2346 | 730
313.16 K, 19000 kPa, x2 = 0.2346 | 730.7
313.16 K, 20000 kPa, x2 = 0.2346 | 731.4
313.16 K, 21000 kPa, x2 = 0.2346 | 732.1
313.16 K, 22000 kPa, x2 = 0.2346 | 732.7
313.16 K, 23000 kPa, x2 = 0.2346 | 733.4
313.16 K, 24000 kPa, x2 = 0.2346 | 734
313.16 K, 25000 kPa, x2 = 0.2346 | 734.7
323.09 K, 1001 kPa, x2 = 0.9511 | 663.1
323.09 K, 2000 kPa, x2 = 0.9511 | 664.3
323.09 K, 3000 kPa, x2 = 0.9511 | 665.4
323.09 K, 4000 kPa, x2 = 0.9511 | 666.6
323.09 K, 5000 kPa, x2 = 0.9511 | 667.7
323.09 K, 6000 kPa, x2 = 0.9511 | 668.8
323.09 K, 7000 kPa, x2 = 0.9511 | 669.9
323.09 K, 8000 kPa, x2 = 0.9511 | 670.9
323.09 K, 9000 kPa, x2 = 0.9511 | 672
323.09 K, 10000 kPa, x2 = 0.9511 | 673
323.09 K, 11000 kPa, x2 = 0.9511 | 674
323.09 K, 12000 kPa, x2 = 0.9511 | 675
323.09 K, 13000 kPa, x2 = 0.9511 | 675.9
323.09 K, 14001 kPa, x2 = 0.9511 | 676.9
323.09 K, 15001 kPa, x2 = 0.9511 | 677.8
323.09 K, 16000 kPa, x2 = 0.9511 | 678.7
323.09 K, 17001 kPa, x2 = 0.9511 | 679.6
323.09 K, 18001 kPa, x2 = 0.9511 | 680.5
323.09 K, 19000 kPa, x2 = 0.9511 | 681.4
323.09 K, 20000 kPa, x2 = 0.9511 | 682.3
323.09 K, 21001 kPa, x2 = 0.9511 | 683.1
323.09 K, 22000 kPa, x2 = 0.9511 | 683.9
323.09 K, 23001 kPa, x2 = 0.9511 | 684.8
323.09 K, 24000 kPa, x2 = 0.9511 | 685.6
323.09 K, 25000 kPa, x2 = 0.9511 | 686.3
323.11 K, 2001 kPa, x2 = 0.5063 | 695.8
323.11 K, 3000 kPa, x2 = 0.5063 | 696.8
323.11 K, 4000 kPa, x2 = 0.5063 | 697.8
323.11 K, 5000 kPa, x2 = 0.5063 | 698.8
323.11 K, 6000 kPa, x2 = 0.5063 | 699.7
323.11 K, 7000 kPa, x2 = 0.5063 | 700.7
323.11 K, 8001 kPa, x2 = 0.5063 | 701.6
323.11 K, 9000 kPa, x2 = 0.5063 | 702.5
323.11 K, 10000 kPa, x2 = 0.5063 | 703.4
323.11 K, 11000 kPa, x2 = 0.5063 | 704.3
323.11 K, 12000 kPa, x2 = 0.5063 | 705.1
323.11 K, 13000 kPa, x2 = 0.5063 | 706
323.11 K, 14000 kPa, x2 = 0.5063 | 706.8
323.11 K, 15000 kPa, x2 = 0.5063 | 707.6
323.11 K, 16000 kPa, x2 = 0.5063 | 708.5
323.11 K, 17001 kPa, x2 = 0.5063 | 709.3
323.11 K, 18000 kPa, x2 = 0.5063 | 710.1
323.11 K, 19000 kPa, x2 = 0.5063 | 710.8
323.11 K, 20000 kPa, x2 = 0.5063 | 711.6
323.11 K, 21001 kPa, x2 = 0.5063 | 712.4
323.11 K, 22050 kPa, x2 = 0.5063 | 713.1
323.11 K, 23000 kPa, x2 = 0.5063 | 713.9
323.11 K, 24000 kPa, x2 = 0.5063 | 714.6
323.11 K, 25000 kPa, x2 = 0.5063 | 715.3
323.12 K, 1000 kPa, x2 = 0.7482 | 679.1
323.12 K, 1001 kPa, x2 = 0.05 | 716.7
323.12 K, 2000 kPa, x2 = 0.7482 | 680.2
323.12 K, 2001 kPa, x2 = 0.05 | 717.6
323.12 K, 3000 kPa, x2 = 0.05 | 718.5
323.12 K, 3000 kPa, x2 = 0.7482 | 681.3
323.12 K, 4000 kPa, x2 = 0.05 | 719.4
323.12 K, 4000 kPa, x2 = 0.7482 | 682.3
323.12 K, 5000 kPa, x2 = 0.05 | 720.3
323.12 K, 5000 kPa, x2 = 0.7482 | 683.4
323.12 K, 6000 kPa, x2 = 0.05 | 721.1
323.12 K, 6000 kPa, x2 = 0.7482 | 684.4
323.12 K, 7000 kPa, x2 = 0.05 | 722
